Consider 16 molecules from patent publication US5935982A, “Methods of treating retroviral infection and compounds useful therefor” (The University of North Carolina at Chapel Hill, priority 1997, dated 1999).

The nature of one data set: in vitro. The format is cell-based. As to conditions: human, cem and magic cells. As for the experimental part:
(§1) Cell lines used were CEM cells, a human T-cell lymphona cell line, A. Kaplan et al, J. Virol. 67:4050-5 (1993), and Magic cells, J. Kimpton et al, J. Virol. 66:2232 (1992). The CEM cells were grown in RPMI-1640 medium supplemented with 5% FCS. The Magic Cells, a HELA derivative, were grown in DMEM/H supplemented with 5% FCS, G418 (20 mg/ml) and Hygromycin (10 mg/ml). The HIV isolate was strain HXB2, originally from Lee Ratner in the laboratory of Robert Gallo at the National Institutes of Health.
Three different toxicity tests were performed on the cell lines used to measure virus infectivity.
The initial test for toxicity utilized the XTT Assay as described by Weislow et al, J. Natl. Cancer Inst. 81:577 (1989). This is the standard assay used originally to measure cell toxicity by potential reverse transcriptase inhibitors. Briefly, cells were grown to cells/ml and drug dilutions were added to the medium. After two days incubation, XTT reagent is added and incubation is continued for 4 hours at 37° C. Following incubation, the plates are read at 450 minus 650 nm (the 650 value is the backround value which is automatically subtracted) with controls of media+XTT reagent without cells, and cells+media without reagent. Also a control of cells+media+XTT reagent was run for each plate. Medium without phenol red was employed to minimize background color as the XTT reagent goes from colorless (unreduced) to orange (reduced). The XTT reagent was freshly prepared on the day of assay as follows: 1 mg/ml of XTT in 0.01M phenazine methosulfate. The phenazine methosulfate solution was prepared ahead of time and stored at 4° C. in a dark bottle. The XTT reagent is added to the microtiter wells at 24 ul per 100 ul of medium. The O.D. was measured on a Vmax plate reader from Molecular Devices Co. with data reduction. Results are expressed as percent of untreated controls. The least toxic compounds were Compounds A, B, and F with toxicities values at 500 μM or greater.
Next, a plating efficiency test measured the ability of the cell to grow after incubation with drug for a number of days. Magic cells were grown from an initial cell concentration of 0.8×104 with or without various concentrations of test compound for 6 days. Plating ability of the cells was assessed by plating dilutions of each culture on plastic. Colony forming units were determined after growth for two to four days by counting colonies after staining the plates. Each sample was plated in duplicate and the colony number averaged.
The third test for cell toxicity assessed growth rate in the presence of the test compound versus a control culture. Magic cells were grown over a period of 15 days with or without various dilutions of test compound. Aliquots were removed every other day and the cells were counted in a hemocytometer.

The next data set concerns the target T1, HIV-1 integrase (Human immunodeficiency virus type 1 group M subtype B, UniProt P04585).
T1 construct: using the integrase coding domain from the HXB2 clone; made in house; host or cells: E. coli
Put plainly: Integrase inhibition assay (site-specific cleavage/joining of labeled oligonucleotide substrate). The format is biochemical, HIV-1 (HXB2 clone). As to conditions: initial screening at 10 μM; assay in duplicate. As for the experimental part: Purification of Integrase Protein. Integrase was overproduced in E. coli from an inducible plasmid containing the integrase sequence under control of a lacI-regulated T7 polymerase using the integrase coding domain from the HXB2 clone of HIV-1 DNA (L. Ratner et al, AIDS Res. Hum. Retroviruses 3:57 (1987)), pT7fl1-IN. A one liter culture at an O.D. of 0.6 was induced by the addition of IPTG to 0.5 mM. After three hours, the cells were harvested by centrifugation and the pellets were stored at -70° C.
The integrase protein was purified by a modification of the method of Sherman and Fyfe, Proc. Natl. Acad. Sci. USA 87:5119 (1990). The cells were lysed by thawing in a buffer (50 mM Tris-HCl pH 7.5, 5 mM dithiothreitol, 1 mM EDTA, 1 mg/ml lysozyme) on ice at 6 ml/g bacterial pellet for 30 minutes, and then incubating at 37° C. for 5 minutes. The lysate was centrifuged at 12,000×g for one hour. The pellets were resuspended in 50 mM Tris-HCl, pH 7.5, 1 mM dithiothreitol, 1 mM EDTA, 1M NaCl (4 ml/g original bacteria). The homogenate was stirred for 30 minutes at 4° C. and recentrifuged for 30 minutes at 12,000×g.
The supernatant was made 0.8M in ammonium sulfate by the slow addition of powder with stirring over a 30 minute period. The extract was then centrifuged to remove any precipitate and applied to a phenyl sepharose column. After a 50 ml wash with high salt buffer (50 mM Tris-HCl, 1 mM EDTA, 5 mM DTT, 2M NaCl), the protein was eluted with a gradient from high salt to O salt buffer containing 10% (weight/vol) glycerol and further purified through a G75 Sephadex column to remove background nuclease. A one liter culture generates enough integrase activity to perform over a thousand drug inhibition assays. […]
Cleavage of specific sites is assessed as described in Sherman et al., supra, except that the assay buffer was the same as that reported by Chow et al, Science 255:723 (1992). The substrate employed is the same as that described for use in the dumbell assay described in Chow et al., J. Virol. 68:7869 (1994), the disclosure of which is incoroprated herein by reference in its entirety. Essentially, the assay is performed with an oligonucleotide of 31 nucleotides that is self-annealing to form a dumbell shape with a nick therein. This substrate mimics the integrated virus and is specifically recognized by integrase to release 2 fragments. When the substrate is end-labeled with γ^32 P-ATP and T4 polynucleotide kinase, and treated with integrase protein, the product is site-specific cleavage of the substrate to form a very different molecular weight when electrophoresed on a denaturing polyacrylamide gel. This allows the reaction to be more easily quantitated with the phosphorimager. This assay represents the step of the integrase reaction where integrase completes its action. The IC50 value reported in Table 1 is generated by regression analysis of the percent control reaction with integrase at various drug concentrations. Initial screening of the compounds was performed at a constant 10 μM concentration for each test compound. Those with activity at 10 μM, were then used to identify IC50 values.
The other assay used consisted of the single 20 mer oligonucleotides corresponding to either the U5 or U3 ends of HIV-1 are end-labeled with ^32 P, annealed with its complement, purified, and used under the same conditions as described above for the endonuclease assay. Reaction products are denatured with formamide, electrophoresed through 20% denaturing polyacrylamide gels and visualized by autoradiography. Both cleavage and ligation activity can be assessed from one gel. To assess the ligation activity alone, "precleaved" substrate that had the -2 cleavage artificially produced by using a radiolabelled 18 mer oligonucleotide was also used for some experiments
Testing as Integrase Inhibitors. Integrase overproduced in E. coli was purified as described above in accordance with Sherman et al, supra, and used in drug inhibition assays. […]

In a further data set the test system is HIV-1. Put plainly: HIV-1 inhibition assay in magic (magi) cells, β-galactosidase expressing cells counted. To be noted: for IC50: Human immunodeficiency virus 1, MAGI, magic cells, HIV-1, drug pretreatment 4 hours, fixed two days later, read-out: Anti-HIV IC50; for Index TD50/IC50: ratio of toxicity TD50 to anti-HIV IC50. The format is cell-based, HIV-1 strain HXB2. As to the method:
as §1
The magi cell assay described by Kimpton et al., supra, was used as described. This assay identifies individual cells infected with HIV-1 by the expression of tat, which transactivates an endogenous copy of the HIV-1 LTR linked to the lac2 reporter gene after integration, inducing β-galactosidase expression when Xgal is added to the cell medium. Any cell with integrated HIV-1 will turn blue. Thus, this assay provides a convenient way to determine the effect of HIV inhibitors at any early step up through the expression of tat, including the inhibition of integration.
The magic cells are plated in twelve-well plates one day prior to infection. The standard assay involves infection with approximately 200 infectious units of HIV-1. This gives an approximately 20 to 1 ratio of signal to background and sufficient numbers of infectious events to quantitate dim effects. The cells are pretreated with drug for 4 hours prior to virus infection, and virus adsorption takes place for 1 hour. The cells are washed with plain medium, and then medium with inhibitor is placed back on the cells. Two days later the cells are fixed after integration with Xgal the indicator reagent for β-galactosidase production. The number of β-galactosidase expressing cells are quantitated by light microscopy.
The results of comparisons of infectious units with or without various concentrations of the bis-benzimididazoles drugs in the magic cell assay are expressed as IC50 values and are compiled in Table 2 above. Note that the best anti-HIV compounds were generally also the best integrase inhibitors.

In the data set “in vitro”, `Cn1c(-c2nc3ccc(C(=N)N)cc3[nH]2)ccc1-c1nc2ccc(C(=N)N)cc2[nH]1` [S-7] gave a CC50 of 90.3 µM. At HIV-1 integrase, this molecule returned an IC50 of 0.85 µM.

`N=C(NC1CCCC1)c1ccc2nc(-c3ccc4oc(-c5nc6ccc(C(=N)NC7CCCC7)cc6[nH]5)cc4c3)[nH]c2c1` [S-6]: inhibition on HIV-1 integrase was half-maximal at 1.4 µM (IC50).

On to `c1cnc(-c2ccc3nc(-c4ccc(-c5nc6ccc(-c7ncccn7)cc6[nH]5)[nH]4)[nH]c3c2)nc1` [S-10], for which the 50% inhibitory concentration (IC50) at HIV-1 integrase is less than 10 µM.

In the data set “in vitro”, `CC(C)NC(=N)c1ccc2nc(-c3ccc(-c4nc5ccc(C(=N)NC(C)C)cc5[nH]4)n3C)[nH]c2c1` [S-12] had a CC50 of 289 µM. In addition, the IC50 against HIV-1 integrase was less than 10 µM.

Consider `N=C(N)c1ccc2nc(-c3ccc(-c4nc5ccc(C(=N)N)cc5[nH]4)o3)[nH]c2c1` [S-14], for which the CC50 in the data set “in vitro” amounted to 81.5 µM. In addition, in the data set with HIV-1, the IC50 is 26.7 µM and the “Index TD50/IC50” value was determined as 3.05. On HIV-1 integrase, this molecule displayed an IC50 of 0.9 µM.

`c1cc(-c2nc3cc(C4=NCCN4)ccc3[nH]2)cc(-c2nc3cc(C4=NCCN4)ccc3[nH]2)c1` [S-2] had a 50% inhibitory concentration (IC50) on HIV-1 integrase of more than 10 µM.

As to `CC(C)NC(=N)c1ccc2nc(-c3cnc(-c4nc5ccc(C(=N)NC(C)C)cc5[nH]4)o3)[nH]c2c1` [S-4], at HIV-1 integrase, the IC50 was less than 10 µM.

Regarding `N=C(N)c1ccc2nc(-c3ccc4oc(-c5nc6ccc(C(=N)N)cc6[nH]5)cc4c3)[nH]c2c1` [S-5], the IC50 with HIV-1 was 19.8 µM; at HIV-1 integrase, less than 10 µM.

Molecule `c1cc2[nH]c(-c3ccc(-c4nc5cc(C6=NCCN6)ccc5[nH]4)[nH]3)nc2cc1C1=NCCN1` [S-9] registered a CC50 in “in vitro” of 213 µM. The molecule also yielded a half-inhibitory concentration (IC50) against HIV-1 integrase of more than 10 µM.

On HIV-1 integrase, `CC(C)NC(=N)c1ccc2nc(-c3ccc4c(c3)Cc3cc(-c5nc6ccc(C(=N)NC(C)C)cc6[nH]5)ccc3-4)[nH]c2c1` [S-3] yielded an IC50 of less than 10 µM.

Turning to `N=C(N)c1ccc2nc(-c3cccc(-c4nc5ccc(C(=N)N)cc5[nH]4)c3)[nH]c2c1` [S-1], half-maximal cytotoxicity in the data set “in vitro” (CC50) was put at 40 µM. The molecule further returned an IC50 on HIV-1 integrase of 1 µM.

`N=C(N)c1ccc2nc(-c3ccc(-c4nc5ccc(C(=N)N)cc5[nH]4)[nH]3)[nH]c2c1` [S-8] returned an IC50 at HIV-1 integrase of 0.5 µM.

As to `CC(C)NC(=N)c1ccc2nc(-c3ccc(-c4nc5ccc(C(=N)NC(C)C)cc5[nH]4)o3)[nH]c2c1` [S-16], the CC50 in “in vitro” was found to be 238 µM. In addition, in the data set on HIV-1, the IC50 stood at 1.39 µM and the “Index TD50/IC50” value is on record as 170.88. At HIV-1 integrase, this molecule returned an IC50 of less than 10 µM.

As for `N=C(NC1CCCC1)c1ccc2nc(-c3ccc(-c4nc5ccc(C(=N)NC6CCCC6)cc5[nH]4)[nH]3)[nH]c2c1` [S-13], the CC50 in the data set “in vitro” was determined as 78.2 µM. The molecule further yielded an IC50 at HIV-1 integrase of less than 5 µM.

In the data set “in vitro”, `Cn1c(-c2nc3ccc(C(=N)NC4CCCC4)cc3[nH]2)ccc1-c1nc2ccc(C(=N)NC3CCCC3)cc2[nH]1` [S-11] yielded a CC50 of 732 µM. Moreover, the IC50 at HIV-1 integrase is more than 10 µM.

`c1cc2nc(-c3ccc(-c4nc5ccc(C6=NCCN6)cc5[nH]4)o3)[nH]c2cc1C1=NCCN1` [S-15] had a cytotoxic concentration (CC50) in “in vitro” of 41.9 µM. Also, in the data set with HIV-1, the half-maximal inhibitory concentration (IC50) came to 8.01 µM and the “Index TD50/IC50” value is on record as 5.23. Besides, it took 0.6 µM to reach half-maximal inhibition against HIV-1 integrase (IC50).
